Reference: patent publication US8030498B2, “Benzoylpyrazole compounds and herbicides containing them” (Ishihara Sangyo Kaisha, Ltd., priority 2005, dated 2011)

Legend:
wheat (Triticum spp.) = assay: Test Example 1: foliar treatment, growth inhibition rate, wheat; type: in vivo; settings: visually observed 17th to 23rd day after application
From the text: (§1) Upland field soil was put into a 1/170,000 hectare pot, and seeds of various plants were sown. When the respective plants reached predetermined leaf stage ((1) barnyardgrass (Echinochloa crus-galli L.); 0.8 to 2.5 leaf stage, (2) crabgrass (Digitaria sanguinalis L.): 0.5 to 3.0 leaf stage, (3) greenfoxtail (Setaria viridis L.): 1.0 to 3.0 leaf stage, (4) redroot pigweed (Amaranthus retroflexus L.): cotyledon stage to 2.0 leaf stage, (5) prickly sida (Sida spinosa L.): cotyledon stage to 1.1 leaf stage, (6) velvetleaf (Abutilon theophrasti MEDIC.): cotyledon stage to 1.5 leaf stage, (7) rice (Oryza sativa L.): 1.0 to 2.5 leaf stage, (8) wheat (Triticum spp.): 1.7 to 3.4 leaf stage, (9) corn (Zea mays L.): 2.0 to 3.5 leaf stage, and (10) soybean (Glycine max Merr.): primary leaf stage to 0.3 leaf stage), wettable powders or emulsifiable concentrates of the compounds of the present invention prepared in accordance with a conventional preparation method, were weighed so that the active ingredients became the prescribed amounts, and diluted with water in an amount corresponding to 500 liter per 1 hectare. 0.1 vol % of an agricultural spreader was further added to the respective diluted liquids, followed by foliar treatment with a small sprayer.
(§2) On the 17th to 23rd day after application, the state of growth of the respective plants was visually observed, and the herbicidal effect was evaluated in accordance with a growth inhibition rate (%) of 0 (equivalent to the non-treated area) to 100% (complete kill).

corn = assay: Test Example 2: soil application on the day after sowing, growth inhibition rate, corn; type: in vivo, Zea mays L.; settings: 250 g/ha active ingredient, observed on 19th to 24th day
From the text: (§3) Upland field soil was put into a 1/170,000 hectare pot, and seeds of various plants (barnyardgrass, crabgrass, greenfoxtail, redroot pigweed, prickly sida, velvetleaf, rice, wheat, corn and soybean) were sown. On the day after sowing, wettable powders or emulsifiable concentrates of the compounds of the present invention prepared in accordance with a conventional preparation method, were weighed so that the active ingredients became the prescribed amounts, and diluted with water in an amount corresponding to 500 liter per 1 hectare, followed by soil application with a small sprayer. On the 19th to 24th day after the application, the state of growth of the respective plants was visually observed, and the herbicidal effect was evaluated in accordance with a growth inhibition rate (%) of from 0 (equivalent to the non-treated area) to 100% (complete kill).

[1] = system: redroot pigweed (Amaranthus retroflexus L.); assay: Test Example 1: foliar treatment, growth inhibition rate, redroot pigweed; type: in vivo; settings: visually observed 17th to 23rd day after application
From the text: as §1, §2

velvetleaf = assay: Test Example 2: soil application on the day after sowing, growth inhibition rate, velvetleaf; type: in vivo, Abutilon theophrasti MEDIC.; settings: 250 g/ha active ingredient, observed on 19th to 24th day
From the text: as §3

[2] = system: soybean (Glycine max Merr.); assay: Test Example 1: foliar treatment, growth inhibition rate, soybean; type: in vivo; settings: visually observed 17th to 23rd day after application
From the text: as §1, §2

[3] = system: crabgrass (Digitaria sanguinalis L.); assay: Test Example 1: foliar treatment, growth inhibition rate, crabgrass; type: in vivo; settings: visually observed 17th to 23rd day after application
From the text: as §1, §2

corn (Zea mays L.) = assay: Test Example 1: foliar treatment, growth inhibition rate, corn; type: in vivo; settings: visually observed 17th to 23rd day after application
From the text: as §1, §2

[4] = system: velvetleaf (Abutilon theophrasti MEDIC.); assay: Test Example 1: foliar treatment, growth inhibition rate, velvetleaf; type: in vivo; settings: visually observed 17th to 23rd day after application
From the text: as §1, §2

crabgrass = assay: Test Example 2: soil application on the day after sowing, growth inhibition rate, crabgrass; type: in vivo, Digitaria sanguinalis L.; settings: 250 g/ha active ingredient, observed on 19th to 24th day
From the text: as §3

[5] = system: barnyardgrass (Echinochloa crus-galli L.); assay: Test Example 1: foliar treatment, growth inhibition rate, barnyardgrass; type: in vivo; settings: visually observed 17th to 23rd day after application
From the text: as §1, §2

[6] = system: greenfoxtail (Setaria viridis L.); assay: Test Example 1: foliar treatment, growth inhibition rate, greenfoxtail; type: in vivo; settings: visually observed 17th to 23rd day after application
From the text: as §1, §2

rice (Oryza sativa L.) = assay: Test Example 1: foliar treatment, growth inhibition rate, rice; type: in vivo; settings: visually observed 17th to 23rd day after application
From the text: as §1, §2

[7] = system: prickly sida (Sida spinosa L.); assay: Test Example 1: foliar treatment, growth inhibition rate, prickly sida; type: in vivo; settings: visually observed 17th to 23rd day after application
From the text: as §1, §2

redroot pigweed = assay: Test Example 2: soil application on the day after sowing, growth inhibition rate, redroot pigweed; type: in vivo, Amaranthus retroflexus L.; settings: 250 g/ha active ingredient, observed on 19th to 24th day
From the text: as §3

soybean = assay: Test Example 2: soil application on the day after sowing, growth inhibition rate, soybean; type: in vivo, Glycine max Merr.; settings: 250 g/ha active ingredient, observed on 19th to 24th day
From the text: as §3

barnyardgrass = assay: Test Example 2: soil application on the day after sowing, growth inhibition rate, barnyardgrass; type: in vivo, Echinochloa crus-galli L.; settings: 250 g/ha active ingredient, observed on 19th to 24th day
From the text: as §3

prickly sida = assay: Test Example 2: soil application on the day after sowing, growth inhibition rate, prickly sida; type: in vivo, Sida spinosa L.; settings: 250 g/ha active ingredient, observed on 19th to 24th day
From the text: as §3

greenfoxtail = assay: Test Example 2: soil application on the day after sowing, growth inhibition rate, greenfoxtail; type: in vivo, Setaria viridis L.; settings: 250 g/ha active ingredient, observed on 19th to 24th day
From the text: as §3

rice = assay: Test Example 2: soil application on the day after sowing, growth inhibition rate, rice; type: in vivo, Oryza sativa L.; settings: 250 g/ha active ingredient, observed on 19th to 24th day
From the text: as §3

SMILES	Growth inhibition rate (%) Wheat (wheat (Triticum spp.); 31 g/ha active ingredient)	Growth inhibition rate (%) Corn (corn)	Growth inhibition rate (%) redroot pigweed ([1]; 31 g/ha active ingredient)	Growth inhibition rate (%) Velvetleaf (velvetleaf)	Growth inhibition rate (%) Soybean ([2]; 31 g/ha active ingredient)	Growth inhibition rate (%) Crabgrass ([3]; 31 g/ha active ingredient)	Growth inhibition rate (%) Corn (corn (Zea mays L.); 31 g/ha active ingredient)	Growth inhibition rate (%) Velvetleaf ([4]; 31 g/ha active ingredient)	Growth inhibition rate (%) Crabgrass (crabgrass)	Growth inhibition rate (%) Barnyardgrass ([5]; 31 g/ha active ingredient)	Growth inhibition rate (%) Greenfoxtail ([6]; 31 g/ha active ingredient)	Growth inhibition rate (%) Rice (rice (Oryza sativa L.); 31 g/ha active ingredient)	Growth inhibition rate (%) Prickly sida ([7]; 31 g/ha active ingredient)	Growth inhibition rate (%) redroot pigweed (redroot pigweed)	Growth inhibition rate (%) Soybean (soybean)	Growth inhibition rate (%) Barnyardgrass (barnyardgrass)	Growth inhibition rate (%) Prickly sida (prickly sida)	Growth inhibition rate (%) Greenfoxtail (greenfoxtail)	Growth inhibition rate (%) Rice (rice)	other results
COCc1c(S(C)(=O)=O)ccc(C(=O)c2cnn(C)c2OC(=O)SC)c1Cl [compound 74]	20%	0%	100%	70%	98%	98%	40%	100%	90%	100%	80%	95%	70%	95%	–	–	–	–	–	–
CCSC(=O)Oc1c(C(=O)c2ccc(S(C)(=O)=O)c(CCOC)c2C)cnn1C [compound 75]	0%	10%	100%	80%	98%	100%	40%	100%	100%	98%	100%	98%	100%	100%	–	–	–	–	–	–
CCSC(=O)Oc1c(C(=O)c2ccc(S(C)(=O)=O)c(COCCOC)c2C)cnn1C [compound 76]	0%	0%	90%	30%	95%	98%	30%	75%	100%	98%	80%	60%	65%	90%	–	–	–	–	–	–
CCOCCOc1c(S(C)(=O)=O)ccc(C(=O)c2cnn(C)c2OC(=O)SCC)c1C [compound 77]	0%	0%	95%	40%	95%	98%	10%	80%	95%	98%	98%	70%	70%	90%	–	–	–	–	–	–
CCSC(=O)Oc1c(C(=O)c2ccc(S(C)(=O)=O)c(OCCCl)c2C)cnn1C [compound 78]	0%	0%	60%	50%	70%	70%	0%	65%	95%	60%	60%	10%	60%	80%	–	–	–	–	–	–
CCSC(=O)Oc1c(C(=O)c2ccc(S(C)(=O)=O)c(OCC(F)(F)F)c2C)cnn1C [compound 79]	0%	0%	100%	50%	100%	100%	50%	98%	90%	100%	98%	60%	75%	90%	–	–	–	–	–	–
CCSC(=O)Oc1c(C(=O)c2ccc(S(C)(=O)=O)c(OCC(C)OC)c2C)cnn1C (stereo not shown) [compound 189]	–	0%	–	100%	98%	95%	0%	100%	100%	95%	98%	90%	70%	100%	10%	100%	100%	100%	100%	–
CCSC(=O)Oc1c(C(=O)c2ccc(S(C)(=O)=O)c(S(C)(=O)=O)c2Cl)cnn1C [compound 224]	–	10%	–	70%	–	–	–	–	100%	–	–	–	–	100%	50%	100%	75%	98%	98%	Growth inhibition rate (%) Wheat (wheat (Triticum spp.); 63 g/ha active ingredient): 0%; Growth inhibition rate (%) redroot pigweed ([1]; 63 g/ha active ingredient): 95%; Growth inhibition rate (%) Soybean ([2]; 63 g/ha active ingredient): 100%; Growth inhibition rate (%) Crabgrass ([3]; 63 g/ha active ingredient): 60%; Growth inhibition rate (%) Corn (corn (Zea mays L.); 63 g/ha active ingredient): 0%; Growth inhibition rate (%) Velvetleaf ([4]; 63 g/ha active ingredient): 60%; Growth inhibition rate (%) Barnyardgrass ([5]; 63 g/ha active ingredient): 95%; Growth inhibition rate (%) Greenfoxtail ([6]; 63 g/ha active ingredient): 70%; Growth inhibition rate (%) Rice (rice (Oryza sativa L.); 63 g/ha active ingredient): 20%; Growth inhibition rate (%) Prickly sida ([7]; 63 g/ha active ingredient): 70%
CCSC(=O)Oc1c(C(=O)c2ccc(S(C)(=O)=O)c(CSC#N)c2C)cnn1C [compound 231]	–	0%	–	0%	–	–	–	–	60%	–	–	–	–	50%	0%	70%	0%	0%	0%	Growth inhibition rate (%) Wheat (wheat (Triticum spp.); 63 g/ha active ingredient): 0%; Growth inhibition rate (%) redroot pigweed ([1]; 63 g/ha active ingredient): 80%; Growth inhibition rate (%) Soybean ([2]; 63 g/ha active ingredient): 100%; Growth inhibition rate (%) Crabgrass ([3]; 63 g/ha active ingredient): 70%; Growth inhibition rate (%) Corn (corn (Zea mays L.); 63 g/ha active ingredient): 0%; Growth inhibition rate (%) Velvetleaf ([4]; 63 g/ha active ingredient): 80%; Growth inhibition rate (%) Barnyardgrass ([5]; 63 g/ha active ingredient): 100%; Growth inhibition rate (%) Greenfoxtail ([6]; 63 g/ha active ingredient): 40%; Growth inhibition rate (%) Rice (rice (Oryza sativa L.); 63 g/ha active ingredient): 50%; Growth inhibition rate (%) Prickly sida ([7]; 63 g/ha active ingredient): 40%
COCCOc1c(S(C)(=O)=O)ccc(C(=O)c2cnn(C)c2OC(=O)SC)c1C [compound 233]	0%	0%	–	100%	100%	100%	0%	100%	100%	100%	100%	80%	60%	100%	50%	100%	40%	100%	100%	–
